Where no end group is shown, it is not given here.
Tests used:
[1] = molecular target: Cldn-4 deletion mutant proteins fused to GST (Mus musculus, UniProt O35054); type: binding
[2] = test system: Cldn-4 deletion mutant proteins fused to GST; type: binding, Mouse

SLDAGQYVLVMKANSSYSGNYPYSILFQKF [Cpe30]
binding to GST-Ecl2 without any TM domain [1]: detectable binding activity, albeit at much lower affinity | binding to TM3.Ecl2.TM4 [1]: consistent binding | sensorgram behaviour with full length Cldn-4 fusion [1]: slight decrease in the late stages of association | binding to GST cldn-4 fusion proteins [2]: high affinity specific binding
